Measurements: patent US20100048529A1, “New 2-Azetidinone Derivatives Useful In The Treatment Of Hyperlipidaemic Conditions” (ASTRAZENECA AB, priority 2005, published 2010)

System: 14C-cholesterol absorption
Conditions: 0.2 μmol/kg by gavage, C57BL/6 female mice, procedure A
Experimental: In Vivo Testing of Cholesterol Absorption Inhibitors (A)
C57BL/6 female mice were maintained on regular chow diet and housed in individual cages to collect faeces. Mice were fasted for 3 hours and then gavaged with vehicle or compound. Half an hour later the mice were gavaged with radiolabelled cholesterol. Six hours after the ^14C-cholesterol gavage blood samples were taken via the tail and plasma prepared to determine how much cholesterol were absorbed. 24 hours after the gavage of ^14C-cholesterol the mice were bled and plasma were prepared for analysis. Faeces were collected for 24 hours to assess absorption efficiency.

## CC(C)(c1ccccc1)[C@@H](NC(=O)CNC(=O)COc1ccc([C@@H]2[C@@H](SCC(O)c3ccc4c(c3)CCO4)C(=O)N2c2ccc(F)cc2)cc1)C(=O)NCC(=O)O (stereo partly drawn) [Example 1, N-({4-[(2R,3R)-3-{[2-(2,3-dihydro-1-benzofuran-5-yl)-2-hydroxyethyl]thio}-1-(4-fluorophenyl)-4-oxoazetidin-2-yl]phenoxy}acetyl)glycyl-b,b-dimethyl-D-phenylalanylglycine]
  inhibition of 14C-cholesterol absorption: 36%
